# According to PubChem BioAssay AID1845206 (Molecular Pharmacology Branch, DTP, NCI, 2023):
# Active and inactive are the calls of the source. The calls were made as follows: active = viability on the fitted dose curve at most 10% of control; inactive = the rest.
# Tested on: NCI-H1618 multicellular tumor spheroid viability
# Assay: Anticancer human tumor NCI-H1618 cell line growth inhibition;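 also: spheroids exposed to agents for 7 days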
# Conditions: for IC50: curve of first compound; for viability, T/C: stronger effect = lower value
# In short: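 Single agents and combinations were tested on spheroids built from tumor cells plus HUVEC and hMSC, at half-log dilutions starting at or near clinical Cmax, else 10 microM; final DMSO 0.25% (v/v).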
# [1] = second compound 1 µM, first compound 0.0316 µM
# [2] = second compound 1 µM, first compound 0.1 µM
# [3] = second compound 1 µM, first compound 0.316 µM
# [4] = second compound 1 µM, first compound 1 µM
# [5] = second compound 1 µM, first compound 3.16 µM
# [6] = second compound 1 µM, first compound 10 µM
# [7] = second compound 3.16 µM, first compound 0.0316 µM
# [8] = second compound 3.16 µM, first compound 0.1 µM
# [9] = second compound 3.16 µM, first compound 0.316 µM
# [10] = second compound 3.16 µM, first compound 1 µM
# [11] = second compound 3.16 µM, first compound 3.16 µM
# [12] = second compound 3.16 µM, first compound 10 µM
# [13] = second compound 10 µM, first compound 0.0316 µM
# [14] = second compound 10 µM, first compound 0.1 µM
# [15] = second compound 10 µM, first compound 0.316 µM
# [16] = second compound 10 µM, first compound 1 µM
# [17] = second compound 10 µM, first compound 3.16 µM
# [18] = second compound 10 µM, first compound 10 µM
# [19] = second compound 31.6 µM, first compound 0.0316 µM
# [20] = second compound 31.6 µM, first compound 0.1 µM
# [21] = second compound 31.6 µM, first compound 0.316 µM
# [22] = second compound 31.6 µM, first compound 1 µM
# [23] = second compound 31.6 µM, first compound 3.16 µM
# [24] = second compound 31.6 µM, first compound 10 µM
# [25] = second compound 100 µM, first compound 0.0316 µM
# [26] = second compound 100 µM, first compound 0.1 µM
# [27] = second compound 100 µM, first compound 0.316 µM
# [28] = second compound 100 µM, first compound 1 µM
# [29] = second compound 100 µM, first compound 3.16 µM
# [30] = second compound 100 µM, first compound 10 µM
SMILES,IC50 (second compound 1 µM),IC50 (second compound 3.16 µM),IC50 (second compound 10 µM),IC50 (second compound 31.6 µM),IC50 (second compound 100 µM),"viability, T/C [5]","viability, T/C [6]","viability, T/C [7]","viability, T/C [8]","viability, T/C [9]","viability, T/C [10]","viability, T/C [11]","viability, T/C [12]","viability, T/C [13]","viability, T/C [14]","viability, T/C [15]","viability, T/C [16]","viability, T/C [17]","viability, T/C [18]","viability, T/C [19]",further results
CC(C)n1c(=O)n(C)c2cnc3cc(F)c(-c4ccc(OCCCN5CCCCC5)nc4)cc3c21 + Cn1nnc2c(C(N)=O)ncn2c1=O,> 10000 nM,< 31.6 nM,< 31.6 nM,< 31.6 nM,4440 nM,78.4%,69%,20.5%,16.2%,25.4%,22.2%,8.21%,14.4%,12.6%,2.97%,8.79%,11.4%,19.9%,5.34%,9.31%,"viability, T/C [1]: 82.9%; outcome [2]: inactive; outcome [3]: inactive; viability, T/C [4]: 86.7%; viability, T/C [20]: 17.1%; viability, T/C [21]: 12.9%; viability, T/C [22]: 11.6%; viability, T/C [23]: 23%; viability, T/C [24]: 6.81%; viability, T/C [25]: 57.3%; viability, T/C [26]: 68.8%; viability, T/C [27]: 52%; viability, T/C [28]: 67.2%; viability, T/C [29]: 57.6%; viability, T/C [30]: 29.9%"
CC1COCCN1c1cc(-c2ccnn2C)c2ccnc(-c3ccn[nH]3)c2n1 (stereo not given) + Cn1nnc2c(C(N)=O)ncn2c1=O,< 31.6 nM,< 31.6 nM,< 31.6 nM,< 31.6 nM,< 31.6 nM,1.02%,3.48%,10.3%,1.64%,1.41%,1.67%,1.26%,2.12%,1.82%,13.4%,1.48%,1.19%,1.65%,2.14%,1.23%,"viability, T/C [1]: 3.35%; viability, T/C [2]: 3.94%; viability, T/C [3]: 1.49%; viability, T/C [4]: 2.09%; viability, T/C [20]: 1.26%; viability, T/C [21]: 1.34%; viability, T/C [22]: 1.03%; viability, T/C [23]: 1.36%; viability, T/C [24]: 1.55%; viability, T/C [25]: 1.42%; viability, T/C [26]: 1.23%; viability, T/C [27]: 1.48%; viability, T/C [28]: 1.42%; viability, T/C [29]: 13.7%; viability, T/C [30]: 1.05%"
COc1cc(C)[nH]c(=O)c1CN1CCc2c(Cl)cc(C(OC)C3COC3)c(Cl)c2C1=O (stereo not given) + Cn1nnc2c(C(N)=O)ncn2c1=O,> 10000 nM,< 31.6 nM,< 31.6 nM,< 31.6 nM,< 31.6 nM,69.6%,72.8%,14.2%,16.2%,20.3%,10.3%,15.8%,15.4%,3.15%,6.34%,4.96%,18.4%,3.33%,4.36%,6.62%,"outcome [1]: inactive; viability, T/C [2]: 77.7%; outcome [3]: inactive; outcome [4]: inactive; viability, T/C [20]: 13.3%; viability, T/C [21]: 3.61%; viability, T/C [22]: 5.57%; viability, T/C [23]: 10.4%; viability, T/C [24]: 13%; viability, T/C [25]: 45.3%; viability, T/C [26]: 41.6%; viability, T/C [27]: 29.8%; viability, T/C [28]: 39.6%; viability, T/C [29]: 18.3%; viability, T/C [30]: 45.1%"
COc1ccc([C@@H](O)c2cc(-c3ncnc4cc(N5CCOCC5)ccc34)c(F)cc2Cl)nn1 + Cn1nnc2c(C(N)=O)ncn2c1=O,5420 nM,< 31.6 nM,< 31.6 nM,< 31.6 nM,< 31.6 nM,72.6%,24.2%,26.6%,27.2%,17.2%,22.2%,5.58%,6.14%,3.36%,5.1%,5.03%,5.47%,5.06%,5.28%,8.19%,"viability, T/C [1]: 86.8%; viability, T/C [2]: 92%; viability, T/C [3]: 95.2%; outcome [4]: inactive; viability, T/C [20]: 12.4%; viability, T/C [21]: 14.6%; viability, T/C [22]: 17.1%; viability, T/C [23]: 5.03%; viability, T/C [24]: 5.45%; viability, T/C [25]: 20.6%; viability, T/C [26]: 34.8%; viability, T/C [27]: 63.5%; viability, T/C [28]: 35.5%; viability, T/C [29]: 20.1%; viability, T/C [30]: 12.2%"
